Values of other authors in patent publication US20030144252A1, “Combination product comprising a non-steroidal antiandrogen and an egfr tyrosine kinase inhibitor” (priority 2000, published 2003).

What was measured:
[1] = system: LNCaP prostate cancer cell line
androgen receptor = conditions: LNCaP prostate cancer cell line

Compound	block of EGF induced cell growth [1]	block of HER2/neu protein induced activation of the androgen receptor (androgen receptor)
CC(O)(CS(=O)(=O)c1ccc(F)cc1)C(=O)Nc1ccc(C#N)c(C(F)(F)F)c1 (centres unmarked) [bicalutamide, 4′-cyano-3-(4-fluorophenylsulphonyl)-2-hydroxy-2-methyl-3′-(trifluoromethyl)propionanilide]	could partially block	–
CC(C)(O)C(=O)Nc1ccc([N+](=O)[O-])c(C(F)(F)F)c1 [hydroxyflutamide]	–	could partially block
